Assay results reported in the supplement of paper PMC10307832.

Experiments:
Test in all cases: relative viability (nuclei count vs DMSO), 5 days (fraction); higher = more cells survive
[1] = compound: O=c1[nH]cc(F)c(=O)[nH]1 [5-Fluorouracil] + CC1(C)CCC(c2ccc(Cl)cc2)=C(CN2CCN(c3ccc(C(=O)NS(=O)(=O)c4ccc(N[C@H](CCN5CCOCC5)CSc5ccccc5)c(S(=O)(=O)C(F)(F)F)c4)cc3)CC2)C1 [Navitoclax] (partner 0.5 µM)
Summary of the method: (§1)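 A single step with final 0.05% Triton X-100, 1% formaldehyde and 1 ug/ml Hoechst fixed the cells and stained nuclei 5 days after treatment. Lung cancer cell lines in 1536-well plates had been treated by pin tool the day after seeding with one drug alone or a fixed anchor-drug dose plus five library-drug doses (not always all listed) in √10 steps, and nuclei were counted on 4× images. Relative viability is the ratio of nuclei in treated wells to nuclei in vehicle wells, taken as the median of duplicate plates.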

[2] = compound: CC1=C(CC(=O)O)c2cc(F)ccc2/C1=C\c1ccc([S+](C)[O-])cc1 [Sulindac] + O=C(c1cc(Cc2n[nH]c(=O)c3ccccc23)ccc1F)N1CCN(C(=O)C2CC2)CC1 [Olaparib] (partner 8 µM)
Summary of the method: as §1

[3] = compound: O=c1[nH]cc(F)c(=O)[nH]1 [5-Fluorouracil] + NC(=O)Nc1cc(-c2cccc(F)c2)sc1C(=O)N[C@H]1CCCNC1 [AZD7762] (partner 0.2 µM)
Summary of the method: as §1

[4] = compound: CC1=C(CC(=O)O)c2cc(F)ccc2/C1=C\c1ccc([S+](C)[O-])cc1 [Sulindac] + CC(=O)c1c(C)c2cnc(Nc3ccc(N4CCNCC4)cn3)nc2n(C2CCCC2)c1=O [Palbociclib] (partner 0.5 µM)
Summary of the method: as §1

| Cell Line | relative viability ([1]; first compound 0.02 µM) | relative viability ([1]; first compound 0.2 µM) | relative viability ([1]; first compound 0.6325 µM) | relative viability ([1]; first compound 2 µM) | relative viability ([2]; first compound 0.08 µM) | relative viability ([2]; first compound 0.253 µM) | relative viability ([2]; first compound 0.8 µM) | relative viability ([2]; first compound 2.53 µM) | relative viability ([2]; first compound 8 µM) | relative viability ([3]; first compound 0.02 µM) | relative viability ([3]; first compound 0.2 µM) | relative viability ([3]; first compound 0.6325 µM) | relative viability ([3]; first compound 2 µM) | relative viability ([4]; first compound 0.08 µM) | relative viability ([4]; first compound 0.253 µM) | relative viability ([4]; first compound 2.53 µM) | relative viability ([4]; first compound 8 µM) | relative viability ([4]; first compound 0.8 µM) |
| --- | --- | --- | --- | --- | --- | --- | --- | --- | --- | --- | --- | --- | --- | --- | --- | --- | --- | --- |
| NCI-H1299 | 1.07 | 1.1 | 1.06 | 0.895 | 0.98 | 1.04 | 0.889 | 0.962 | 1.03 | – | – | – | – | – | – | – | – | – |
| NCI-H1648 | – | – | – | – | 1.38 | 0.827 | – | 0.997 | 0.695 | 0.582 | 0.831 | 0.493 | 0.435 | 0.275 | 0.268 | 0.242 | 0.282 | – |
| NCI-H1650 | 1.29 | 0.82 | 0.63 | 0.294 | 0.827 | 0.723 | 0.705 | 0.742 | 0.757 | – | – | – | – | 0.271 | 0.331 | 0.346 | 0.315 | 0.341 |
| NCI-H1703 | 1.32 | 1.08 | 0.817 | 0.61 | 0.39 | 0.526 | 0.404 | 0.529 | 0.554 | 0.103 | 0.072 | 0.118 | 0.118 | – | – | – | – | – |
| NCI-H2009 | 1.18 | 1.16 | 1.08 | 0.726 | 0.893 | 0.716 | 0.679 | 0.666 | 0.754 | – | – | – | – | 0.176 | 0.209 | 0.17 | 0.242 | 0.234 |
| NCI-H2023 | 1.01 | 0.257 | 0.161 | 0.122 | 0.486 | 0.511 | – | 0.441 | 0.554 | – | – | – | – | 0.387 | 0.429 | 0.415 | 0.454 | 0.362 |
| NCI-H2228 | 0.808 | 1.06 | 0.732 | 0.42 | 0.941 | 0.804 | 0.499 | 0.637 | 0.516 | – | – | – | – | 0.876 | 0.967 | 0.864 | 0.831 | 0.487 |
| NCI-H2342 | – | – | – | – | 0.353 | 0.368 | 0.414 | 0.415 | 0.451 | 0.473 | 0.622 | 0.557 | 0.546 | 0.466 | 0.482 | 0.481 | 0.56 | 0.536 |
| SK-LU-1 | 1.1 | 1.2 | 0.796 | 0.753 | 0.498 | 0.525 | 0.446 | 0.407 | 0.536 | – | – | – | – | 0.387 | 0.417 | 0.369 | 0.408 | 0.464 |
| SK-MES-1 | 1.2 | 0.789 | 0.474 | 0.373 | 0.733 | 0.825 | 0.56 | 0.712 | 0.772 | – | – | – | – | 0.313 | 0.364 | 0.373 | 0.315 | 0.353 |
| SW 900 | – | – | – | – | 0.968 | 0.965 | – | – | 1.06 | 0.739 | 0.695 | 0.543 | 0.398 | 0.479 | 0.584 | – | 0.496 | – |
| SW 1573 | 1.02 | 1.13 | 0.782 | 0.501 | 0.52 | 0.523 | 0.528 | 0.478 | 0.551 | – | – | – | – | 0.451 | 0.406 | 0.336 | 0.464 | 0.362 |
